# Measurements taken from patent US20230346709A1, “TABLET CONTAINING VALSARTAN AND SACUBITRIL” (ALFRED E. TIEFENBACHER (GMBH & CO. KG), priority 2017, published 2023).
# Assay: Storage stability of the tablets, solid form of the active ingredients by powder XRD
# Format: physicochemical
# Conditions: after storage in Alu-Alu blister, three months at 40° C./75% RH
# Protocol: The XRD measurements were performed using X-ray source with Cu K-alpha radiation, Empyrean system (or equivalent), PIXcel detector, divergence slit 0.25° fixed, anti-scattering slit 0.5°, soller slits 2×0.02 radians, Nickel filter to suppress back ground and Cu K-beta components, current 40 mA, voltage 45 kV, 2° - 40 ° 2θ, spinning 30 RPM, step size 0.013° with total measurement time 1 Hr at room temperature. 1. Grind about two tablets to fine powder using Agate mortar and pestle gently. Prepare the sample (approx. 350 mg) using PANalytical sample preparation kit by ‘Back loading technique’. The sample surface should be smooth and in parallel to sample holder surface. Clean the outer edges of the holder with tissue paper to avoid sample contaminations. 2. Place the prepared sample holder carefully on the sample stage of the XRD instrument and analyze as per the above XRD method conditions at room temperature.
row,SMILES,"change of solid form of the active ingredient in the tablets, powder XRD"
1,CCCCC(=O)N(Cc1ccc(-c2ccccc2-c2nnn[n-]2)cc1)[C@H](C(=O)[O-])C(C)C.CCOC(=O)[C@H](C)C[C@@H](Cc1ccc(-c2ccccc2)cc1)NC(=O)CCC(=O)[O-].O.[Na+].[Na+].[Na+] [LCZ696],no crystallization
2,CCOC(=O)[C@H](C)C[C@@H](Cc1ccc(-c2ccccc2)cc1)NC(=O)CCC(=O)O [sacubitril monosodium],no polymorph conversion or amorphization
3,CCCCC(=O)N(Cc1ccc(-c2ccccc2-c2nnn[nH]2)cc1)[C@H](C(=O)O)C(C)C [valsartan disodium],no crystallization
